Data: patent US20140243418A1, “RASAGILINE FOR PARKINSON'S DISEASE MODIFICATION” (Teva Pharmaceutical Industries, Ltd., priority 2008, published 2014)

What was measured:
Early Stage PD patients [1] = system: Early Stage PD patients
Excerpt: If, at any stage during the placebo-controlled phase the investigator determines that a subject needs additional anti-PD therapy, the subject will proceed to Phase II of the study. The investigator, aided by a questionnaire, will give careful consideration to the issue of a subject's need for additional anti-PD therapy. Scheduled in-clinic visits will be conducted at baseline and at weeks 4, 12, 24 and 36. Therefore, altogether there will be 5 scheduled visits during this phase. Unscheduled visits may be conducted at any time to assess a subject's need for additional anti-PD therapy, for safety reasons or for any other reason.
(§1) III. Additional Efficacy Endpoints • 1. Number (%) of subjects who need additional anti-PD therapy • 2. Time to need of additional anti-PD therapy • 3. Change from baseline to LOV in placebo-controlled phase in Part I of revised UPDRS (version 4)

Early Stage PD patients [2] = details: 1 mg only; end of the PC phase
Excerpt: as §1

PD patients = details: cited from earlier work
Early Stage PD patients [3] = details: rasagiline 1 mg and 2 mg; end of the PC phase
Excerpt: IV. Sub-Study • 1. Change from baseline to LOV in placebo-controlled phase in Parkinson Fatigue scale • 2. Change from baseline in Subject Reported Outcomes (US only) • 3. A blood sample for pharmacogenetic analysis will be collected from all subjects at baseline. If not performed at baseline, can be performed at any other visit. Participation in this sub-study is voluntary pending IRB/EC approval and subject's authorization on a separate informed consent form.

For `C#CCN[C@@H]1CCc2ccccc21` [rasagiline], the “Hazard Ratio, time to additional anti-PD therapy, 1 mg-Placebo Difference” value (Early Stage PD patients [1]; PC Phase, rasagiline 1 mg vs placebo, Cox Proportional Hazards Model) was 0.385, the “Hazard Ratio, time to additional anti-PD therapy, 2 mg-Placebo Difference” value (Early Stage PD patients [1]; PC Phase, rasagiline 2 mg vs placebo, Cox Proportional Hazards Model) was 0.379 and the “Need for additional anti PD Therapy” value (Early Stage PD patients [1]; rasagiline 1 mg and 2 mg, end of the PC phase) was “beneficial effect”. The “UPDRS Version 4 Part 1” value (Early Stage PD patients [2]) was “beneficial effect”, the “functional decline vs treatment delayed for 6 months” value (PD patients; 1 and 2 mg/d rasagiline for one year, TEMPO) was “less functional decline” and the “efficacy as monotherapy in PD patients” value (PD patients; first 6-month double-blind, randomized placebo-controlled stage of TEMPO) was “efficacious as monotherapy”. The “Parkinson Fatigue Scale” value (Early Stage PD patients [3]) was “beneficial effect”.
